Earlier results, collected in patent publication US20210015755A1, “SECNIDAZOLE SOFT GELATIN CAPSULE AND METHODS AND USES THEREOF” (Lupin Inc., priority 2019, published 2021).

Structure (SMILES) | excreted intact in the urine (in vivo) | absorption after oral administration (oral administration) | effectiveness in the treatment of bacterial vaginosis (bacterial vaginosis; 500 mg ovule formulation versus 37.5 mg metronidazole gel (Sanchez et al.)) | cure rates (bacterial vaginosis; intravaginal 750 mg ovule formulation versus 500 mg ovule composition (Aguin et al.))
Cc1ncc([N+](=O)[O-])n1CC(C)O (stereo not shown) [Secnidazole, 1-(2-hydroxypropyl)-2-methyl-5-nitromidazole] | 50% | rapidly and completely absorbed | – | –
Cc1ncc([N+](=O)[O-])n1CCO [metronidazole] | – | – | significantly more effective | higher cure rates
